Data on 16 compounds can be found in patent US20110305715A1, “ANTIBODIES TO 3-HYDROXYCOTININE AND METHODS OF USE THEREOF” (priority 2010, published 2011).

As a reminder, the IC50 is the concentration that gives 50% inhibition. Read a high IC50 as weaker potency in that assay.

Experiment [1] deals with 3-Hydroxycotinine MAb 22H9C7. As to the kind of experiment: Competitive microplate ELISA (test principle #1) with immobilized 3HC MAb and 3HC-HRP tracer. The following applies: for IC50: competitor vs 3HC-HRP for 3-Hydroxycotinine MAb 22H9C7; for Reactivity (%): calculated from IC50 values, 3-Hydroxycotinine MAb 22H9C7.
Experimental: (§1) Competitive microplate EIA for quantification of COT (A) and 3HC (B) by test principle #1. Different concentrations of COT or 3HC and fifteen other NIC metabolites were incubated with an immobilized COT MAb or 3HC MAb in the presence of a constant amount of COT-HRP or 3HC-HRP. The binding of the COT-HRP or 3HC-HRP to its corresponding MAb was detected by the reaction of the HRP with peroxidase substrate. The graph illustrates an inhibition curve that was formed with various concentrations of authentic COT (A) and 3HC (B). Apparent COT or 3HC concentrations are inversely related to the OD450 value.
As for the anti-cotinine monoclonal antibody, above, specificity and sensitivity of the anti-3-hydroxycotinine monoclonal antibody (3HC MAb) was determined in competitive microplate ELISA with 3HC and a battery of NIC metabolites and tobacco alkaloids using 3HC-HRP as tracer. […] Apparent 3HC concentrations are inversely related to the OD450 value.
Experiment [2] relates to Cotinine MAb 3B11A4. Put plainly: Competitive microplate ELISA (test principle #1) with immobilized COT MAb and COT-HRP tracer. It is filed as binding. The conditions noted are these: for Reactivity (%): calculated from IC50 values, Cotinine MAb 3B11A4; for IC50: competitor vs COT-HRP for Cotinine MAb 3B11A4.
Experimental: as §1
Specificity and sensitivity of the anti-cotinine monoclonal antibody (COT MAb) were determined in competitive microplate ELISA with COT and a battery of NIC metabolites and tobacco alkaloids using COT-HRP as tracer. […] Apparent COT concentrations are inversely related to the OD450 value.

Values after ≈ are worked out from the molar mass of the structure shown.

As for `C1=CCC(c2cccnc2)NC1` (stereo not drawn) [Anatabine], the IC50 in experiment [1] is listed as >5,000 ng/mL. Further, in experiment [2], the “Reactivity (%)” value was less than 1.5% and the IC50 is >5,000 ng/mL.
For `CN1CCC[C@H]1c1ccc[n+]([C@@H]2O[C@H](C(=O)[O-])[C@@H](O)[C@H](O)[C@H]2O)c1` [Nicotine-gluconuride, Nicotine-glucuronide], in experiment [1], the “Reactivity (%)” value was less than 1% and the IC50 is recorded as >5,000 ng/mL. Besides, in experiment [2], the “Reactivity (%)” value is less than 1.5% and the concentration for half-maximal inhibition (IC50) is >5,000 ng/mL.
Consider `c1cncc(C2=NCCC2)c1` [Myosmine], for which the IC50 in experiment [1] is >5,000 ng/mL. Moreover, in experiment [2], the “Reactivity (%)” value is listed as less than 1.5% and the IC50 is on record as >5,000 ng/mL.
Turning to `CN1C(=O)CCC1c1ccc[n+](C2OC(C(=O)[O-])C(O)C(O)C2O)c1` (stereo not drawn) [Cotinine-gluconuride, cotinine-glucuronide], in experiment [1], the “Reactivity (%)” value is given as less than 1% and the half-maximal inhibitory concentration (IC50) was >5,000 ng/mL. In experiment [2], the “Reactivity (%)” value was less than 1.5% and the concentration for half-maximal inhibition (IC50) is >5,000 ng/mL.
As for `c1cncc(C2=NCCCC2)c1` [Anabaseine], the half-maximal inhibitory concentration (IC50) in experiment [1] is >5,000 ng/mL. Besides, in experiment [2], the “Reactivity (%)” value is given as less than 1.5% and the IC50 is on record as >5,000 ng/mL.
`CN1C(=O)CC[C@H]1c1cccnc1` [Cotinine]: in experiment [1], the “Reactivity (%)” value is recorded as less than 1% and the 50% inhibitory concentration (IC50) was >5,000 ng/mL. Moreover, in experiment [2], the “Reactivity (%)” value is reported as 100% and the IC50 is on record as 66.1 ng/mL (≈ 0.375 µM).
Take `CN1C(=O)C(O[C@@H]2O[C@H](C(=O)O)[C@@H](O)[C@H](O)[C@H]2O)CC1c1cccnc1` (stereo partly drawn) [3-Hydroxycotinine-gluconuride, 3-hydroxycotinine-glucuronide]: the figures for the “Reactivity (%)” value in experiment [1] and in experiment [2] were less than 1% and less than 1.5%, respectively. Further, the half-inhibitory concentration (IC50) in experiment [1] and in experiment [2] was >5,000 ng/mL in each case.
On to `Cn1cccc1-c1cccnc1` [Nicotyrine], for which the IC50 in experiment [1] and in experiment [2] was >5,000 ng/mL in each case. Further, the “Reactivity (%)” value in experiment [2] is recorded as less than 1.5%.
On to `CN1CCCC1c1cccnc1` (stereo not drawn) [Nicotine], for which, in experiment [1], the “Reactivity (%)” value is recorded as less than 1% and the IC50 is >5,000 ng/mL. In experiment [2], the “Reactivity (%)” value was less than 1.5% and the concentration for half-maximal inhibition (IC50) is recorded as >5,000 ng/mL.
In the case of `CN1C(=O)CC[C@H]1c1ccc[n+]([O-])c1` [Cotinine-N-Oxide, cotinine-N-oxide], the “Reactivity (%)” value was less than 1% in experiment [1] and less than 1.5% in experiment [2]. Moreover, the IC50 in experiment [1] and in experiment [2] was >5,000 ng/mL in each case.
`c1cncc(-c2ccnc(-c3cccnc3)c2)c1` [Nicotelline]: the IC50 in experiment [1] and in experiment [2] was >5,000 ng/mL in each case. The “Reactivity (%)” value in experiment [2] was less than 1.5%.
In the case of `O=C1CCC(c2cccnc2)N1` (stereo not drawn) [Norcotinine], the IC50 in experiment [1] was >5,000 ng/mL. Also, in experiment [2], the “Reactivity (%)” value was less than 1.5% and the half-maximal inhibitory concentration (IC50) is recorded as >5,000 ng/mL.
Regarding `CN1C(=O)C(O)C[C@H]1c1cccnc1` (stereo partly drawn) [3-Hydroxycotinine], in experiment [1], the “Reactivity (%)” value was 100% and the 50% inhibitory concentration (IC50) was found to be 39.8 ng/mL (≈ 0.207 µM). In experiment [2], the “Reactivity (%)” value is recorded as 1.86% and the IC50 came to 3545.0 ng/mL (≈ 18.4 µM).
Consider `CN1CCCC1c1ccc[n+]([O-])c1` (stereo not drawn) [Nicotine-N-Oxide, Nicotine-N-oxide], for which the “Reactivity (%)” value in experiment [1] was less than 1%; in experiment [2], less than 1.5%. Besides, the 50% inhibitory concentration (IC50) in experiment [1] and in experiment [2] was >5,000 ng/mL throughout.
As for `c1cncc([C@@H]2CCCN2)c1` [Nornicotine], the IC50 in experiment [1] is >5,000 ng/mL. For the same compound, in experiment [2], the “Reactivity (%)” value was less than 1.5% and the half-inhibitory concentration (IC50) is recorded as >5,000 ng/mL.
As for `CN1C(=O)CC[C@@]1(O)c1cccnc1` [5-Hydroxycotinine], the “Reactivity (%)” value in experiment [1] is given as less than 1%; in experiment [2] it was 4.39%. In addition, the results for the 50% inhibitory concentration (IC50) in experiment [1] and in experiment [2] were >5,000 ng/mL and 1505.2 ng/mL (≈ 7.83 µM), respectively.
